Earlier results in patent CN114794330A, “一种调节水生动物活力状态的功能性调理剂及其制备方法” (Nori Shanghai Bioengineering Co ltd, priority 2022, dated 2022).

For `NCCS(=O)(=O)O` [牛磺酸, 2-氨基乙磺酸], the “solubility in 95% ethanol” value (95% ethanol, 17℃) is given as 0.004%, the solubility in acetone (acetone) is given as “不溶” and the “solubility in anhydrous ethanol” value (anhydrous ethanol) is given as “不溶”. For the same compound, the “solubility in diethyl ether” value (diethyl ether) was “不溶” and the solubility in water (water, 12℃) was 0.5%.
